These results are taken from patent US20240025883A1, “PYRIMIDIN-2-YL SULFONAMIDE DERIVATIVES” (Hoffmann-La Roche Inc., priority 2021, published 2024).

Series [1] can be described thus: Microsome clearance assay, rat. The following applies: microsomes.
Procedure: (§1) Incubations at a test compound of 1 mM in microsomes (0.5 mg/mL) plus cofactor NADPH are performed in 96 well plates at 37° C. on a TECAN (Tecan Group Ltd, Switzerland) automated liquid handling system. The final concentration of the test compound in the incubation is 1 microM. After a 10 minutes preincubation step of the test compound with the microsomes, the enzymatic reaction is started by the addition of cofactors. At 1, 3, 6, 9, 15, 25, 35 and 45 minutes, aliquots of the incubations are removed and quenched with 1:3 (v/v) acetonitrile containing internal standards. Samples are then cooled and centrifuged before analysis of the supernatant by LC-MS/MS.
The nature of series [2]: Microsome clearance assay, mouse. The following applies: microsomes.
Procedure: as §1
Series [3] in a line: Microsome clearance assay, human. The following applies: microsomes.
Procedure: as §1
Series [4] concerns the target human GPR17 short isoform (Homo sapiens (Human), UniProt Q13304). The series can be described thus: GPR17 cAMP assay (hGPR17 cAMP, antagonist mode against EC80 of MDL29,951). It counts as cell-based. The note with it: CHO-K1 cells stably expressing human GPR17 short isoform; EC80 of agonist MDL29,951; forskolin 15 μM. The method, boiled down:
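cAMP was read by competitive TR-FRET after a 30 min room-temperature stimulation: antagonists plus EC80 MDL29,951 and 0.5 mM IBMX, followed 5 min later by 15 μM forskolin. Cells were CHO-K1 with stable human GPR17 short isoform in HBSS/HEPES/BSA, pH 7.4; percent activity versus reference antagonist fitted sigmoidally.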
Background: Cyclic AMP is a second messenger, typically raised through Gs and lowered through Gi signalling.

The conditions of series [5]: microsomes, 1 µM.
Procedure: as §1
For series [6] the following is noted: microsomes, 1 µM. This is another data set of the same source.
Procedure: as §1
The conditions of series [7]: microsomes, 1 µM. This is another data set of the same source.
Procedure: as §1

Sequence of human GPR17 short isoform (Q13304 29-367): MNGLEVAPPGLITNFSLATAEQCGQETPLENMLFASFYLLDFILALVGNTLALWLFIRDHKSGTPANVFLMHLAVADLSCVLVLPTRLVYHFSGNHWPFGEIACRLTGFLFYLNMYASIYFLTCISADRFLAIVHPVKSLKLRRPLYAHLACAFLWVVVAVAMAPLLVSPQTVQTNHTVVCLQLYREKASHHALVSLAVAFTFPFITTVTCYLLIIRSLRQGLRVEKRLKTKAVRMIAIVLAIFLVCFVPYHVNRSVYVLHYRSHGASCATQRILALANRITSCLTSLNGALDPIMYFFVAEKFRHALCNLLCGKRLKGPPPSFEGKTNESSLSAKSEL

In general, microsomal CLint refers to the rate of metabolic loss divided by the concentration. Lower therefore signals slow turnover. The term IC50 denotes the point on the concentration scale where inhibition reaches its midpoint. Consider `COc1nc(NS(=O)(=O)c2c[nH]c3cc(Cl)ccc23)ncc1CCC#N` [Example 179, 6-chloro-N-[5-(2-cyanoethyl)-4-methoxy-pyrimidin-2-yl]-1H-indole-3-sulfonamide], for which the microsomal CLint at 1 µM in series [1] came out at 33 µL/min/mg; in series [2], 10 µL/min/mg; in series [3], 10 µL/min/mg. Besides, in series [4], the IC50 is 31 nM.

For the molecule `COc1nc(NS(=O)(=O)c2c[nH]c3cc(Cl)ccc23)ncc1Br` [Example 22, N-(5-bromo-4-methoxy-pyrimidin-2-yl)-6-chloro-1H-indole-3-sulfonamide], the microsomal CLint at 1 µM in series [1], in series [2] and in series [3] was 10 µL/min/mg each time. Moreover, the IC50 in series [4] was 515 nM.

Take `COc1nc(NS(=O)(=O)c2c[nH]c3cc(Cl)ccc23)c(F)cc1CCC#N` [RE-D, 6-chloro-N-[5-(2-cyanoethyl)-3-fluoro-6-methoxy-2-pyridyl]-1H-indole-3-sulfonamide, reference compound]: the results for the microsomal CLint at 1 µM in series [1], in series [2] and in series [3] were 869 µL/min/mg, 121 µL/min/mg and 103 µL/min/mg, respectively.

On to `COc1nc(NS(=O)(=O)c2c[nH]c3cc(Cl)ccc23)ncc1OCCF` [Example 1, 6-chloro-N-[5-(2-fluoroethoxy)-4-methoxy-pyrimidin-2-yl]-1H-indole-3-sulfonamide], for which the microsomal CLint at 1 µM in series [1] was 29 µL/min/mg; in series [2] it was 10 µL/min/mg; in series [3] it was 16 µL/min/mg. The same molecule registered an IC50 in series [4] of 69 nM.

Consider `COc1nc(NS(=O)(=O)c2c[nH]c3c(F)c(Cl)ccc23)c(F)cc1OCC(F)F` [RE-B, reference compound], for which the values for the microsomal CLint at 1 µM in series [1], in series [2] and in series [3] were 65 µL/min/mg, 26 µL/min/mg and 11 µL/min/mg, respectively.

With `COc1nc(NS(=O)(=O)c2c[nH]c3cc(Cl)ccc23)c(F)cc1OCCF` [RE-A, 6-chloro-N-[3-fluoro-5-(2-fluoroethoxy)-6-methoxy-2-pyridyl]-1H-indole-3-sulfonamide, reference compound], the intrinsic metabolic clearance (microsomal CLint) at 1 µM was 357 µL/min/mg in series [1], 77 µL/min/mg in series [2] and 121 µL/min/mg in series [3].

Turning to `COc1nc(NS(=O)(=O)c2c[nH]c3c(F)c(Cl)ccc23)ncc1OCC(F)F` [Example 123, 6-chloro-N-[5-(2,2-difluoroethoxy)-4-methoxy-pyrimidin-2-yl]-7-fluoro-1H-indole-3-sulfonamide], the microsomal CLint at 1 µM in series [1], in series [2] and in series [3] was 10 µL/min/mg throughout. Besides, the IC50 in series [4] is 91 nM.

In the case of `COc1nc(NS(=O)(=O)c2c[nH]c3cc(Cl)ccc23)ncc1CC(F)F` [Example 47, 6-chloro-N-[5-(2,2-difluoroethyl)-4-methoxy-pyrimidin-2-yl]-1H-indole-3-sulfonamide], the microsomal CLint at 1 µM stood at 110 µL/min/mg in series [1], 10 µL/min/mg in series [2] and 10 µL/min/mg in series [3]. In series [4], this molecule gave an IC50 of 19 nM.

Turning to `COc1nc(NS(=O)(=O)c2c[nH]c3cc(Cl)ccc23)c(F)cc1CC(F)F` [RE-C, 6-chloro-N-[5-(2,2-difluoroethyl)-3-fluoro-6-methoxy-2-pyridyl]-1H-indole-3-sulfonamide, reference compound], the microsomal CLint at 1 µM in series [1] stood at 286 µL/min/mg; in series [2], 81 µL/min/mg; in series [3], 35 µL/min/mg.

Consider “N-(4-bromo-2-fluoro-5-methoxy-phenyl)-6-chloro-1H-indole-3-sulfonamide [RE-F]”, for which the “Microsomal Clearance rat” value in series [5] is given as 166 μL/min/mg protein. Further, the “Microsomal Clearance human” value in series [6] amounted to 29 μL/min/mg protein. Also, the “Microsomal Clearance mouse” value in series [7] worked out at 129 μL/min/mg protein.

In turn, `COc1nc(NS(=O)(=O)c2csc3nc(Cl)ccc23)ncc1CC(F)F` [Example 139, 6-chloro-N-[5-(2,2-difluoroethyl)-4-methoxy-pyrimidin-2-yl]thieno[2,3-b]pyridine-3-sulfonamide] registered an IC50 in series [4] of 106 nM.

The molecule `COc1nc(NS(=O)(=O)c2c[nH]c3cc(Cl)ccc23)ncc1CC(F)(F)C(F)F` [Example 261, 6-chloro-N-[4-methoxy-5-(2,2,3,3-tetrafluoropropyl)pyrimidin-2-yl]-1H-indole-3-sulfonamide] returned an IC50 in series [4] of 91 nM.

Take `COc1nc(NS(=O)(=O)c2c[nH]c3c(F)c(Br)ccc23)ncc1CCC#N` [Example 240, 6-bromo-N-[5-(2-cyanoethyl)-4-methoxy-pyrimidin-2-yl]-7-fluoro-1H-indole-3-sulfonamide]: the IC50 in series [4] was 48 nM.

`COc1nc(NS(=O)(=O)c2c[nH]c3nc(C)ccc23)nc(OC)c1OCCF` [Example 131, N-[5-(2-fluoroethoxy)-4,6-dimethoxy-pyrimidin-2-yl]-6-methyl-1H-pyrrolo[2,3-b]pyridine-3-sulfonamide] displayed an IC50 in series [4] of 116 nM.
